Measured values as given in patent publication US8029768B2, “Treatment of respiratory diseases” (Sosei R&D Ltd., priority 2000, dated 2011).

What was measured:
asthma = conditions: inhaled, Walker et al. 1987; cited from earlier work
[1] = about 1 mg sample on sinter, 195 ml water reservoir, FIG. 1
Protocol: A 195 ml reservoir was used in the dissolution test. The reservoir was filled with water and contained a sampling inlet port and a sampling outlet port. A sintered disk of approximately 50 mm diameter and 3 mm depth was placed in an opening on top of the reservoir, in contact with the water. A known mass (about 1 mg) of the sample to be tested was dropped onto the sinter and a timer started. At various times, 1 ml samples were removed from the reservoir and immediately replaced with 1 ml of water to maintain the volume in the system. The samples were analysed in a Cecil Aquarius CE7200 ultraviolet spectrophotometer at a wavelength of 200 nm. The concentration of the samples was calculated with a previously prepared calibration graph and the concentration versus time was plotted.

For `C[N+]1(C)CCC(OC(=O)C(O)(c2ccccc2)C2CCCC2)C1` (stereo not shown) [glycopyrrolate], the “duration of effective treatment” value (asthma) is given as “up to 12 hours”, the “duration of effective treatment that appears to be maximal” value (asthma) is given as “up to 8 hours” and the “time at which the maximum concentration is achieved” value [1] is given as 10 min. The “concentration of glycopyrrolate in the reservoir at 5 minutes” value ([1]; first time point 5 minutes) was “greater than 10 mg/l”.
